Data from patent publication US20260070945A1, “MACROCYCLIC IMMUNOMODULATORS” (Bristol-Myers Squibb Company, priority 2022, published 2026).
pIC50: −log10 of the molar value. Where a SMILES comes first, the peptide text is derived from it. Bridges are numbered along the chain shown (N, C = ends). [ ]: non-standard residue; d: D form. The star is where a group is joined. Phe(4-COOH) = N[C@@H](Cc1ccc(C(=O)O)cc1)C(=O)O; Bip = N[C@@H](Cc1ccc(-c2ccccc2)cc1)C(=O)O; 4Pal = N[C@@H](Cc1ccncc1)C(=O)O; Cha = N[C@@H](CC1CCCCC1)C(=O)O; 12Ado = NCCCCCCCCCCCC(=O)O; Carboxymethyl = O=C(O)C*; NMeA = CN[C@@H](C)C(=O)O; Orn = NCCC[C@H](N)C(=O)O; Aun = NCCCCCCCCCCC(=O)O; Dab = NCC[C@H](N)C(=O)O; AEEA = NCCOCCOCC(=O)O

Molecular target: T1, PD-1/PD-L1 interaction (PE-labeled human PD-L1-Ig binding to Jurkat cell line over-expressing human PD-1) (Homo sapiens, UniProt Q15116)
T1 construct: expressed in transfected cells; host or cells: Jurkat
Test: Jurkat-PD-1 Cell Binding High-Content Screening Assay (CBA)
Settings: Jurkat-hPD-1 cells, PE-labeled PD-L1-Ig 20 nM final; read-out: Jurkat HPD1 PDL1 IC50
Procedure, shortened: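 In this imaging assay, cells in 10% FCS medium see compound for 2 h at 37 °C and then labeled ligand at 20 nM final for 1 h. Paraformaldehyde fixation, Hoechst 33342 staining and dPBS washes precede image capture.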

T1 sequence (Q15116 25-288): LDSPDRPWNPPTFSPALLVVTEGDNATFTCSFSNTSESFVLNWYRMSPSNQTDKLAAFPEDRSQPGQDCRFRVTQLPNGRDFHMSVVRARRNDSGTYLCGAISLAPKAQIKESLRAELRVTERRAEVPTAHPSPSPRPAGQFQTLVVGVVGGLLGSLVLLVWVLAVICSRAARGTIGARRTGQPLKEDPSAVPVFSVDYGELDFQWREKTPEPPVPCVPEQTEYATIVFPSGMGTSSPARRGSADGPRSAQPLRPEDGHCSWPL

SMILES | pIC50
CC(C)C[C@@H]1NC(=O)[C@H](Cc2c[nH]c3ccccc23)NC(=O)[C@H](CC(=O)O)NC(=O)[C@H](Cc2ccc(OCC(=O)O)cc2)NC(=O)[C@H](Cc2ccc(OCC(=O)O)cc2)NC(=O)CSC[C@@H](C(=O)NCCOCCOCC(=O)N[C@@H](CCN)C(=O)NCCCCCCCCCCC(=O)O)NC(=O)[C@H](CCCN)NC(=O)[C@H](C(C)C)NC(=O)[C@H](CC2CCCCC2)NC(=O)[C@H](CCN)NC(=O)[C@@H](CC(C)C)NC(=O)[C@H](C)N(C)C(=O)[C@H](C(C)C)NC(=O)[C@H](Cc2ccc(-c3ccccc3)cc2)NC1=O [Example 2158] ({CH2CO}-Y(Carboxymethyl)Y(Carboxymethyl)DWL[Bip]V[NMeA][dL][Dab][Cha]V[Orn]C[AEEA][Dab][Aun]-OH; thioether N-14) | 7.70
CC(C)C[C@@H]1NC(=O)[C@H](Cc2c[nH]c3ccccc23)NC(=O)[C@H](CC(=O)O)NC(=O)[C@H](Cc2ccc(C(=O)O)cc2)NC(=O)[C@H](Cc2ccc(OCC(=O)O)cc2)NC(=O)CSC[C@@H](C(=O)N[C@@H](CCCCN)C(=O)NCCCCCCCCCCC(=O)O)NC(=O)[C@H](CCCN)NC(=O)[C@H](C(C)C)NC(=O)[C@H](CC2CCCCC2)NC(=O)[C@H](CCN)NC(=O)[C@@H](CC(C)C)NC(=O)[C@H](C)N(C)C(=O)[C@H](C(C)C)NC(=O)[C@H](Cc2ccc(-c3ccccc3)cc2)NC1=O [Example 2159] ({CH2CO}-Y(Carboxymethyl)[Phe(4-COOH)]DWL[Bip]V[NMeA][dL][Dab][Cha]V[Orn]CK[Aun]-OH; thioether N-14) | 7.75
CC(C)C[C@H]1NC(=O)[C@H](C)N(C)C(=O)[C@H](C(C)C)NC(=O)[C@H](Cc2ccc(-c3ccccc3)cc2)NC(=O)[C@H](C(C)C)NC(=O)[C@H](Cc2c[nH]c3ccccc23)NC(=O)[C@H](CC(=O)O)NC(=O)[C@H](Cc2ccc(OCC(=O)O)cc2)NC(=O)[C@H](CCCNC(=N)N)NC(=O)CSC[C@@H](C(=O)NCC(=O)NCCOCCOCC(=O)N[C@@H](CCCN)C(=O)NCCCCCCCCCCCC(=O)O)NC(=O)[C@H](CCCN)NC(=O)[C@H](C(C)C)NC(=O)[C@H](CC2CCCCC2)NC(=O)[C@H](CCN)NC1=O [Example 2160] ({CH2CO}-RY(Carboxymethyl)DWV[Bip]V[NMeA][dL][Dab][Cha]V[Orn]CG[AEEA][Orn][12Ado]-OH; thioether N-14) | 7.91
CC(C)C[C@@H]1NC(=O)[C@H](Cc2c[nH]c3ccccc23)NC(=O)[C@H](CC(=O)O)NC(=O)[C@H](Cc2ccc(O)cc2)NC(=O)[C@H](Cc2ccncc2)NC(=O)CSC[C@@H](C(=O)N[C@@H](CCCN)C(=O)NCCOCCOCC(=O)NCCCCCCCCCCC(=O)O)NC(=O)[C@H](CCCN)NC(=O)[C@H](C(C)C)NC(=O)[C@H](CC2CCCCC2)NC(=O)[C@H](CCN)NC(=O)[C@@H](CC(C)C)NC(=O)[C@H](C)N(C)C(=O)[C@H](C(C)C)NC(=O)[C@H](Cc2ccc(-c3ccccc3)cc2)NC1=O [Example 2161] ({CH2CO}-[4Pal]YDWL[Bip]V[NMeA][dL][Dab][Cha]V[Orn]C[Orn][AEEA][Aun]-OH; thioether N-14) | 6.91
CC(C)C[C@@H]1NC(=O)[C@H](Cc2c[nH]c3ccccc23)NC(=O)[C@H](CC(=O)O)NC(=O)[C@H](Cc2ccc(C(=O)O)cc2)NC(=O)[C@H](Cc2ccc(OCC(=O)O)cc2)NC(=O)CSC[C@@H](C(=O)NCC(=O)NCCOCCOCC(=O)N[C@@H](CCCN)C(=O)NCCCCCCCCCCC(=O)O)NC(=O)[C@H](CCCN)NC(=O)[C@H](C(C)C)NC(=O)[C@H](CC2CCCCC2)NC(=O)[C@H](CCN)NC(=O)[C@@H](CC(C)C)NC(=O)[C@H](C)N(C)C(=O)[C@H](C(C)C)NC(=O)[C@H](Cc2ccc(-c3ccccc3)cc2)NC1=O [Example 2162] ({CH2CO}-Y(Carboxymethyl)[Phe(4-COOH)]DWL[Bip]V[NMeA][dL][Dab][Cha]V[Orn]CG[AEEA][Orn][Aun]-OH; thioether N-14) | 8.11
